According to patent US6015790A, “Methods and compositions for treating rheumatoid arthritis” (BASF Aktiengesellschaft, priority 1997, dated 2000):

Columns and labels:
[1] = system: collagen induced arthritis in DBA-1 mice; experiment: Collagen induced arthritis, prophylactic model (mean arthritic score); format: in vivo; conditions: 5 mg/kg/day intraperitoneally, day 26 to day 35 post immunization
[2] = system: collagen induced arthritis in DBA-1 mice; experiment: Collagen induced arthritis, therapeutic model (mean arthritic score, histopathology); format: in vivo; conditions: 5 mg/kg/day intraperitoneally, 21 days from day 48, necropsy day 71, vs vehicle
[3] = system: National Cancer Institute's P388 lymphocytic leukemia cell line; conditions: cited from earlier work

Compound | signs of rheumatoid arthritis after end of treatment (mean arthritic score) [1] | cartilage involvement (cartilage damage, histopathology, scale 0-3) [2] | synovitis (synovial inflammation, histopathology, scale 0-3) [2] | inhibition of cell growth [3]
C[C@@H]1C[C@H]2[C@@H]3CCC4=CC(=O)C=C[C@]4(C)[C@@]3(F)[C@@H](O)C[C@]2(C)[C@@]1(O)C(=O)CO [dexamethasone] | exhibited signs of rheumatoid arthritis immediately following the end of treatment | significantly suppressed | significantly suppressed | –
Dolastatin-15 | – | – | – | markedly inhibits the growth
